# Test results as given in publication PMC11728142, “A Tachyplesin Antimicrobial Peptide from Theraphosidae Spiders with Potent Antifungal Activity Against Cryptococcus neoformans” (Microorganisms, 2024).
# Residues, ends and D or L forms follow the SMILES beside them.
# Experiments:
# chymotrypsin = conditions: peptide 1 mg/mL, peptide:enzyme 250:1, 5 mM CaCl2, 50 mM Tris-HCl pH 7.4, 37 °C, time points 0 to 12 h, SDS-PAGE bands
# Description: (§1) The mixture was heated for 10 min at 95 °C to halt enzymatic reaction. A solution of 20 µL of the SDS-PAGE loading buffer (5×) was added to 80 µL of the sample, mixed by vortexing and heated for 5 min at 95 °C. SDS-PAGE analysis was performed using Omni-PAGE™Precast HEPES-Tris Gels. LL37 and colistin antibiotics were used as controls.
# trypsin = conditions: peptide 1 mg/mL, peptide:enzyme 250:1, 5 mM CaCl2, 50 mM Tris-HCl pH 7.4, 37 °C, time points 0 to 12 h, SDS-PAGE bands
# Description: as §1
# [1] = test system: Candida albicans_ATCC10231; test: microbe, parasite or virus in culture; conditions: broth microdilution, YM broth, 2 × 10^6 CFU/mL, 24 h at 37 °C; lowest concentration that fully inhibited growth
# Description: (§2) To achieve a final cell concentration of 2 × 10^6 CFU/mL, mid-log phase cultures were diluted with a Yeast and Mold (YM) broth and then put to 96-well plates with two-fold serially diluted peptides (from 0.1 to 89.8 µM) in a 1:1 ratio.
# Candida auris_84 = test: microbe, parasite or virus in culture; conditions: broth microdilution, YM broth, 2 × 10^6 CFU/mL, 24 h at 37 °C; lowest concentration that fully inhibited growth
# Description: as §2
# [2] = test system: Cryptococcus neoformans_BNCC225501; test: microbe, parasite or virus in culture; conditions: broth microdilution, YM broth, 2 × 10^6 CFU/mL, 24 h at 37 °C; lowest concentration that fully inhibited growth
# Description: as §2
# Candida auris_55 = test: microbe, parasite or virus in culture; conditions: broth microdilution, YM broth, 2 × 10^6 CFU/mL, 24 h at 37 °C; lowest concentration that fully inhibited growth
# Description: as §2
# [3] = test system: Cryptococcus neoformans_ATCC32045; test: microbe, parasite or virus in culture; conditions: broth microdilution, YM broth, 2 × 10^6 CFU/mL, 24 h at 37 °C; lowest concentration that fully inhibited growth
# Description: as §2
smiles,measurement,setting,value
CC(C)[C@H](NC(=O)[C@H](CCCCN)NC(=O)[C@H](Cc1ccccc1)NC(=O)[C@H](CS)NC(=O)[C@@H](N)CCC(N)=O)C(=O)N[C@@H](CS)C(=O)N[C@@H](Cc1ccccc1)C(=O)N[C@@H](CCCNC(=N)N)C(=O)N[C@@H](CCCCN)C(=O)N[C@@H](CCCNC(=N)N)C(=O)N[C@@H](CS)C(=O)N[C@@H](Cc1ccccc1)C(=O)N[C@H](C(=O)N[C@@H](CCCCN)C(=O)N[C@@H](CS)C(=O)N[C@@H](CO)C(=O)N[C@@H](CCCNC(=N)N)C(=O)N[C@@H](CO)C(=O)O)[C@@H](C)O [QS18red] (H-QCFKVCFRKRCFTKCSRS-OH),proteolytic stability with chymotrypsin,chymotrypsin,faint initial band that disappeared after 15 min
same,proteolytic stability with trypsin,trypsin,no bands observed even at t = 0 min
same,MIC,[1],> 89.8 µM
same,MIC,Candida auris_84,44.9 µM
same,MIC,[2],89.8 µM
same,MIC,Candida auris_55,> 89.8 µM
same,MIC,[3],≥ 89.8 µM
